Laboratory results reported in the kinase profiling compilation of Christmann-Franck et al. (2016).

Columns and labels:
Test in all cases: radiometric filter-binding kinase assay
[1] = target: NEK6 (human) (UniProt Q9HC98)
[2] = target: EPHA4 (human) (UniProt P54764)
[3] = target: INSRR (human) (UniProt P14616)
[4] = target: BTK (human) (UniProt Q06187)
[5] = system: RPS6KB1 (human), P23443 [T412E]
[6] = target: MAPK9 (human) (UniProt P45984)
[7] = target: PIM1 (human) (UniProt P11309)
[8] = target: EPHB4 (human) (UniProt P54760)
[9] = target: PKN2 (human) (UniProt Q16513)
[10] = target: MYLK (human) (UniProt Q15746)
MYLK (human), sequence (Q15746 whole entry, looked up): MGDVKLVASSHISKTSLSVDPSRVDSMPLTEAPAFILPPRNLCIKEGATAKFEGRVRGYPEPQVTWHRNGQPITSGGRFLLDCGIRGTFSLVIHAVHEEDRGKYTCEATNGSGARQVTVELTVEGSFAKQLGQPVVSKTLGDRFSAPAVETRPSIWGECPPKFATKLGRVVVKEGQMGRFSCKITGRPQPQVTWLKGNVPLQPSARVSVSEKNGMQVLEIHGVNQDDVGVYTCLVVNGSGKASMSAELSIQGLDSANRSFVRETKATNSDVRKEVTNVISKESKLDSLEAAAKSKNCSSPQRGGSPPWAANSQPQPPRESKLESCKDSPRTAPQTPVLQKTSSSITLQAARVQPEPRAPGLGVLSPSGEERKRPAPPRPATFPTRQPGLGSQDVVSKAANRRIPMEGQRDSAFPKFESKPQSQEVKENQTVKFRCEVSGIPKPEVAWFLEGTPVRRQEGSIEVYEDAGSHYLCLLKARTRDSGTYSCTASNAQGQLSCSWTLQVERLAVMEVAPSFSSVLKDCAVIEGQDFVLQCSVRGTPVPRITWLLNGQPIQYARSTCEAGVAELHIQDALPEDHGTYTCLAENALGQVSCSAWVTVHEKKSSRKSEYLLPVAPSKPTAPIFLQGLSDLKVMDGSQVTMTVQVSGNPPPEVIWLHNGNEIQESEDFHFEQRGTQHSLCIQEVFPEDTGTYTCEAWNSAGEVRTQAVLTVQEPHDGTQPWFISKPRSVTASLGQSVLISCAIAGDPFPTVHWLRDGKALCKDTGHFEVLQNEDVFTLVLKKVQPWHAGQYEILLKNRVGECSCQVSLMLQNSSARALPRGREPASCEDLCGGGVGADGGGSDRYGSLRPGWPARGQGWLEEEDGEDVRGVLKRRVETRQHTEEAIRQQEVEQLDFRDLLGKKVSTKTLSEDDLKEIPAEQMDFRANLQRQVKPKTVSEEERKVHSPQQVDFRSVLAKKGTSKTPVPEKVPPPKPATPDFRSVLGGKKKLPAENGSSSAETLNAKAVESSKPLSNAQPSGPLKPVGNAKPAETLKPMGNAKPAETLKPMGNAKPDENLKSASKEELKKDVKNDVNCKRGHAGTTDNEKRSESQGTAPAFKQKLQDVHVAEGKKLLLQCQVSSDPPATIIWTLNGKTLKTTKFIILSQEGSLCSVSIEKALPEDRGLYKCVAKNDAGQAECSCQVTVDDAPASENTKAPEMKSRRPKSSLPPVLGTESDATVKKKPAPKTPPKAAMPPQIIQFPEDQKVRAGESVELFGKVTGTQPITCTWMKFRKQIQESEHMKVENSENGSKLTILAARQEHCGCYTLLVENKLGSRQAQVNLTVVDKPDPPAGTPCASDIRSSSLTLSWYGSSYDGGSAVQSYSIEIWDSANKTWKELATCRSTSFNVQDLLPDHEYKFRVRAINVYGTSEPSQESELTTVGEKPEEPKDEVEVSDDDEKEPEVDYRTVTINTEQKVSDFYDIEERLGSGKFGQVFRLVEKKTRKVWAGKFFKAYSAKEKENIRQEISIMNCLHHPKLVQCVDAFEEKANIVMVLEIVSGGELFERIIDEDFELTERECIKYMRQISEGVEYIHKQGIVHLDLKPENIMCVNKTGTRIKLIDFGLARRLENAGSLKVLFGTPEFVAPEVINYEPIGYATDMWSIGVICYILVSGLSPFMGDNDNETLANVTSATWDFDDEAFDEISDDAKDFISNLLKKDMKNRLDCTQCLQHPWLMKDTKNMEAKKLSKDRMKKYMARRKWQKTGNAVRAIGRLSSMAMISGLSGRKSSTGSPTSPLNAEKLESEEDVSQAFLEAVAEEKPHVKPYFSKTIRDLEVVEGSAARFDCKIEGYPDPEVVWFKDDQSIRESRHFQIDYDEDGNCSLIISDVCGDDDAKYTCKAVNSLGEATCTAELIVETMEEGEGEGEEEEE

[11] = target: MAP2K2 (human) (UniProt P36507)
[12] = target: CDK2 CCNA2 (human) (UniProt P20248+P24941)
[13] = target: PAK6 (human) (UniProt Q9NQU5)
[14] = target: STK3 (human) (UniProt Q13188)
STK3 (human), sequence (Q13188 whole entry, looked up): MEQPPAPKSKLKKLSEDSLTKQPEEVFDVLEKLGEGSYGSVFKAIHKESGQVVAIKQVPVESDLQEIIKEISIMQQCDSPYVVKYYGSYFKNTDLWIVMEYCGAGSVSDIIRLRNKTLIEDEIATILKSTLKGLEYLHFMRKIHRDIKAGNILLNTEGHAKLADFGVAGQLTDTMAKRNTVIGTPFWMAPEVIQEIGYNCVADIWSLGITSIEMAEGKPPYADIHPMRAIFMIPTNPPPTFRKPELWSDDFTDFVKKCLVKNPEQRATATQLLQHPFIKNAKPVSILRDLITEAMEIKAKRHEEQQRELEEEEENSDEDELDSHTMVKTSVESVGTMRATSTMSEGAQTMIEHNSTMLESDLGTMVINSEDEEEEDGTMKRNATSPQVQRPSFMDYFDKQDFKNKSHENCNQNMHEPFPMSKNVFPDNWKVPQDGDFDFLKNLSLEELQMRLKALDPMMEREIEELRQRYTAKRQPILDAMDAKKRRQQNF

[15] = target: TBK1 (human) (UniProt Q9UHD2)
TBK1 (human), sequence (Q9UHD2 whole entry, looked up): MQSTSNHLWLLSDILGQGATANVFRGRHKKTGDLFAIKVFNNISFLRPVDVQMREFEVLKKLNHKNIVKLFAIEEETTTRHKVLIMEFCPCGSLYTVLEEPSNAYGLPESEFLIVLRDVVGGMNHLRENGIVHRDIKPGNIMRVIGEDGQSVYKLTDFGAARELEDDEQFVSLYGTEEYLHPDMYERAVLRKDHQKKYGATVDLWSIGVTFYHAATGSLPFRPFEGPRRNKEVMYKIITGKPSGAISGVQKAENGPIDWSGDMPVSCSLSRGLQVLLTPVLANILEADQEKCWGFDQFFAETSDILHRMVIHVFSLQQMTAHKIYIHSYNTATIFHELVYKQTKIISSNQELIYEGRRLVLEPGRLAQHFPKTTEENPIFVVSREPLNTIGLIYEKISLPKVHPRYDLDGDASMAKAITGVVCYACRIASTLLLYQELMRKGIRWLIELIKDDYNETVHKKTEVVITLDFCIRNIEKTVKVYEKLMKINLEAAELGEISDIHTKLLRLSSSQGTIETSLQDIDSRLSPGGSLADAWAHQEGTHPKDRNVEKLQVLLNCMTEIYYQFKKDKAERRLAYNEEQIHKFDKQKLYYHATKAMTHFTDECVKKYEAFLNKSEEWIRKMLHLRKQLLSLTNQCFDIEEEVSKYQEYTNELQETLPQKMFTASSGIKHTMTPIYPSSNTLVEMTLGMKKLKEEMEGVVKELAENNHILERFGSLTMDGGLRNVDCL

[16] = target: SRPK1 (human) (UniProt Q96SB4)
[17] = target: PIM2 (human) (UniProt Q9P1W9)
[18] = target: EEF2K (human) (UniProt O00418)
[19] = target: DAPK1 (human) (UniProt P53355)
[20] = target: IKBKB (human) (UniProt O14920)
[21] = target: PIM3 (human) (UniProt Q86V86)
[22] = target: MAP2K1 (human) (UniProt Q02750)
[23] = target: CHEK1 (human) (UniProt O14757)
[24] = target: CSNK2A1 (human) (UniProt P68400)
CSNK2A1 (human), sequence (P68400 whole entry, looked up): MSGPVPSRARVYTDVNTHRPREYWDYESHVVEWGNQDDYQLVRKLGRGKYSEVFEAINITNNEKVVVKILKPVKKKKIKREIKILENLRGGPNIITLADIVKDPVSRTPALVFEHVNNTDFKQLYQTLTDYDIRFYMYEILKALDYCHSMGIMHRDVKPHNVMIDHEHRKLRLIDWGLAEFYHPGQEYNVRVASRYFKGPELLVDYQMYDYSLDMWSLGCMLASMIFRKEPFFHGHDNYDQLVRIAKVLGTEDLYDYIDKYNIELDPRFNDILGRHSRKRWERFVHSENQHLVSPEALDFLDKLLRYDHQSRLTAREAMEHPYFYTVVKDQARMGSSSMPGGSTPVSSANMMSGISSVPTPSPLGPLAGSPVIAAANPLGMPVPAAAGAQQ

[25] = target: GCK (human) (UniProt Q12851)
[26] = system: PAK2 (human), Q13177 [T402E]
[27] = target: RPS6KA5 KD1 KD2 (human) (UniProt O75582)
RPS6KA5 KD1 KD2 (human), sequence (O75582 whole entry, looked up): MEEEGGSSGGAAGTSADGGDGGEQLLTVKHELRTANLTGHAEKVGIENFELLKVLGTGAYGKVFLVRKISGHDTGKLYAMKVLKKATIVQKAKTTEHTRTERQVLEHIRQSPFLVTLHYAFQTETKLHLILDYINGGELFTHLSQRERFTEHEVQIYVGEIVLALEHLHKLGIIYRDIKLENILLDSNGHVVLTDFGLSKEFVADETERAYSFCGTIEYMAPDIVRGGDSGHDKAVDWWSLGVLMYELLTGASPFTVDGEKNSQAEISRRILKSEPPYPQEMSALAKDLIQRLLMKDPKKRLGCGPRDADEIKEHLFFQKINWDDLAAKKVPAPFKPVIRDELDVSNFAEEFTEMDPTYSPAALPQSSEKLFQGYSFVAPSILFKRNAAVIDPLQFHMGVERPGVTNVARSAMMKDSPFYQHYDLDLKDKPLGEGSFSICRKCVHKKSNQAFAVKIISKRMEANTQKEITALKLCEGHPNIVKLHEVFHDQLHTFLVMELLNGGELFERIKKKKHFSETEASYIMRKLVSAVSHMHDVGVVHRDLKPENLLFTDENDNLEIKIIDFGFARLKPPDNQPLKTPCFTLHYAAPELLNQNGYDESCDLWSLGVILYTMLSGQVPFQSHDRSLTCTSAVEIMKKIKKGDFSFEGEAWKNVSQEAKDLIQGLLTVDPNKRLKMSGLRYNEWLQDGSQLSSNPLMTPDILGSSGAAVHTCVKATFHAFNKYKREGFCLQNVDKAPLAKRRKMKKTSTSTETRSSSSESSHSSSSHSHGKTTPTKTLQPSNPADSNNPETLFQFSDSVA

[28] = target: MARK4 (human) (UniProt Q96L34)
[29] = target: MAP3K9 (human) (UniProt P80192)
[30] = target: MKNK2 (human) (UniProt Q9HBH9)
[31] = target: TTK (human) (UniProt P33981)
[32] = target: MARK3 (human) (UniProt P27448)
[33] = target: MAPKAPK2 (human) (UniProt P49137)
[34] = target: YES1 (human) (UniProt P07947)
[35] = target: MAP3K5 (human) (UniProt Q99683)
[36] = target: EPHB1 (human) (UniProt P54762)

MAPK9 (human), sequence (P45984 whole entry, looked up): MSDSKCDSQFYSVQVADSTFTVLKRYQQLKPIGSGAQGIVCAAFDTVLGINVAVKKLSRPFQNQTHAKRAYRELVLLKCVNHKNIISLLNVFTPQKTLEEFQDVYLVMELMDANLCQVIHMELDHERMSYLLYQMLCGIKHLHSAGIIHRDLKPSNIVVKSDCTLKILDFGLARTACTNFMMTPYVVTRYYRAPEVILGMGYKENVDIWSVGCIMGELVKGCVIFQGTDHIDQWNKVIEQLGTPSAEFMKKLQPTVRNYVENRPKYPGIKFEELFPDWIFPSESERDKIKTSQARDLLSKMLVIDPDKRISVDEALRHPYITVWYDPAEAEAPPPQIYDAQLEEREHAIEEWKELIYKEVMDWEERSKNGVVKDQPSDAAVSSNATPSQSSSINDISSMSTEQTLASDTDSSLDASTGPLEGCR

`Oc1ccc2ccccc2c1SSc1c(O)ccc2ccccc12` was tested, and the residual activity ([1]; compound 1.0 µM) was 34%, the residual activity ([1]; compound 5.0 µM) was 11% and the residual activity ([1]; compound 10.0 µM) was 65%. It also gave a residual activity ([2]; compound 1.0 µM) of 98%, a residual activity ([2]; compound 5.0 µM) of 89% and a residual activity ([3]; compound 1.0 µM) of 84%. For the same compound, the residual activity ([3]; compound 5.0 µM) was 47%, the residual activity ([3]; compound 10.0 µM) was 83% and the residual activity ([4]; compound 1.0 µM) was 28%. For the same compound, the residual activity ([4]; compound 5.0 µM) was 19%, the residual activity ([4]; compound 10.0 µM) was 27% and the residual activity ([5]; compound 1.0 µM) was 56%. The residual activity ([5]; compound 5.0 µM) was 14%, the residual activity ([5]; compound 10.0 µM) was 3% and the residual activity ([6]; compound 1.0 µM) was 94%. It also gave a residual activity ([6]; compound 5.0 µM) of 80%, a residual activity ([6]; compound 10.0 µM) of 94% and a residual activity ([7]; compound 1.0 µM) of 37%. For the same compound, the residual activity ([7]; compound 5.0 µM) was 15%, the residual activity ([7]; compound 10.0 µM) was 46% and the residual activity ([8]; compound 1.0 µM) was 109%. For the same compound, the residual activity ([8]; compound 5.0 µM) was 119%, the residual activity ([9]; compound 1.0 µM) was 72% and the residual activity ([9]; compound 5.0 µM) was 30%. For the same compound, the residual activity ([9]; compound 10.0 µM) was 87%, the residual activity ([10]; compound 1.0 µM) was 74% and the residual activity ([10]; compound 5.0 µM) was 51%. It also gave a residual activity ([10]; compound 10.0 µM) of 87%, a residual activity ([11]; compound 1.0 µM) of 90% and a residual activity ([11]; compound 5.0 µM) of 48%. For the same compound, the residual activity ([12]; compound 1.0 µM) was 101%, the residual activity ([12]; compound 5.0 µM) was 106% and the residual activity ([12]; compound 10.0 µM) was 88%. The residual activity ([13]; compound 1.0 µM) was 86%, the residual activity ([13]; compound 5.0 µM) was 45% and the residual activity ([13]; compound 10.0 µM) was 101%. The residual activity ([14]; compound 1.0 µM) was 5%, the residual activity ([14]; compound 5.0 µM) was 6% and the residual activity ([14]; compound 10.0 µM) was 51%. The residual activity ([15]; compound 1.0 µM) was 59%, the residual activity ([15]; compound 5.0 µM) was 22% and the residual activity ([15]; compound 10.0 µM) was 77%. The residual activity ([16]; compound 1.0 µM) was 62%, the residual activity ([16]; compound 5.0 µM) was 47% and the residual activity ([16]; compound 10.0 µM) was 84%. For the same compound, the residual activity ([17]; compound 1.0 µM) was 65%, the residual activity ([17]; compound 5.0 µM) was 21% and the residual activity ([17]; compound 10.0 µM) was 81%. It also gave a residual activity ([18]; compound 1.0 µM) of 83%, a residual activity ([18]; compound 5.0 µM) of 60% and a residual activity ([18]; compound 10.0 µM) of 89%. It also gave a residual activity ([19]; compound 1.0 µM) of 101%, a residual activity ([19]; compound 5.0 µM) of 83% and a residual activity ([20]; compound 1.0 µM) of 33%. It also gave a residual activity ([20]; compound 5.0 µM) of 6%, a residual activity ([20]; compound 10.0 µM) of 68% and a residual activity ([21]; compound 1.0 µM) of 76%. It also gave a residual activity ([21]; compound 5.0 µM) of 17%, a residual activity ([21]; compound 10.0 µM) of 58% and a residual activity ([22]; compound 1.0 µM) of 85%. The residual activity ([22]; compound 5.0 µM) was 18%, the residual activity ([22]; compound 10.0 µM) was 96% and the residual activity ([23]; compound 1.0 µM) was 89%. For the same compound, the residual activity ([23]; compound 5.0 µM) was 88%, the residual activity ([23]; compound 10.0 µM) was 88% and the residual activity ([24]; compound 1.0 µM) was 104%. It also gave a residual activity ([24]; compound 5.0 µM) of 97%, a residual activity ([24]; compound 10.0 µM) of 127% and a residual activity ([25]; compound 1.0 µM) of 30%. It also gave a residual activity ([25]; compound 5.0 µM) of 2%, a residual activity ([26]; compound 1.0 µM) of 5% and a residual activity ([26]; compound 5.0 µM) of 2%. It also gave a residual activity ([27]; compound 1.0 µM) of 79%, a residual activity ([27]; compound 5.0 µM) of 65% and a residual activity ([27]; compound 10.0 µM) of 101%. For the same compound, the residual activity ([28]; compound 1.0 µM) was 47%, the residual activity ([28]; compound 5.0 µM) was 41% and the residual activity ([29]; compound 1.0 µM) was 16%. The residual activity ([29]; compound 5.0 µM) was 4%, the residual activity ([30]; compound 1.0 µM) was 97% and the residual activity ([30]; compound 5.0 µM) was 78%. It also gave a residual activity ([30]; compound 10.0 µM) of 87%, a residual activity ([31]; compound 1.0 µM) of 68% and a residual activity ([31]; compound 5.0 µM) of 40%. For the same compound, the residual activity ([32]; compound 1.0 µM) was 81%, the residual activity ([32]; compound 5.0 µM) was 63% and the residual activity ([32]; compound 10.0 µM) was 69%. The residual activity ([33]; compound 1.0 µM) was 90%, the residual activity ([33]; compound 5.0 µM) was 69% and the residual activity ([33]; compound 10.0 µM) was 76%. The residual activity ([34]; compound 1.0 µM) was 59%, the residual activity ([34]; compound 5.0 µM) was 34% and the residual activity ([34]; compound 10.0 µM) was 60%. It also gave a residual activity ([35]; compound 1.0 µM) of 129%, a residual activity ([35]; compound 5.0 µM) of 154% and a residual activity ([36]; compound 1.0 µM) of 118%. It also gave a residual activity ([36]; compound 5.0 µM) of 102%.
